Assay results reported in patent US20240391889A1, “ANTIMICROBIAL COMPOUNDS AND THE METHODS OF USE” (priority 2021, published 2024).
In brackets after ≈: the same amount, converted by molar mass. Numbered stars: 1 amine (or outer) side, 2 acyl side, 3 side chain; on linkers, the order of the positions; unused ones are H or OH. Square brackets hold non-standard residues; d marks the D form. Peptide text beside a SMILES is read from it. N(tridecyl)Gly = CCCCCCCCCCCCCNCC(=O)O; X1 = CC(c1ccccc1)N(CC(=O)[*:2])[*:1]; NFurfurylGly = O=C(O)CNCc1ccco1; Gly(N(CH2)3NH2) = NCCCNCC(=O)O; Nphe = O=C(O)CNCc1ccccc1; NPrGly = CCCNCC(=O)O; Nlys = NCCCCNCC(=O)O

Test system: Klebsiella pneumoniae ATCC 13883
Assay: Bacterial MIC assay, K. pneumoniae
Format: cell-based
Conditions: 24 h, CAMHB
Text: This screening led to the discovery of RMG9-11 (FIG. 2C). The minimum inhibitory concentration (MIC) of resynthesized RMG9-11 was initially determined against C. albicans, C. neoformans, and the ESKAPE bacteria via CSLI guidelines (CLSI. Methods for Dilution Antimicrobial Susceptibility Tests for Bacteria That Grow Aerobically, 11th Edition. Clinical and Laboratory Standards Institute (2018); CLSI. Reference method for broth dilution antifungal susceptibility testing of yeasts; approved standard-third edition; CLSI document M27-A3. Clinical and Laboratory Standards Institute (2008)). […]
The minimum inhibitory concentration (MIC) of peptoids against the ESKAPE bacteria (Enterococcus faecium ATCC 6569; Staphylococcus aureus ATCC 29213; Klebsiella pneumoniae ATCC 13883; Acinetobacter baumanii ATCC 19606; Pseudomonas aeruginosa ATCC 25619; Enterococcus faecalis ATCC 29212; and Escherichia coli ATCC 25922) was determined following CLSI guidelines (CLSI. Methods for Dilution Antimicrobial Susceptibility Tests for Bacteria That Grow Aerobically, 11th Edition. Clinical and Laboratory Standards Institute, 2018). The MIC against Mycobacterium smegmatis was also determined following CLSI guidelines (Woods, G. L. et al. Susceptibility Testing of Mycobacteria, Nocardiae, and Other Aerobic Actinomycetes, 2nd edition. (2011)). […]

CCCCCCCCCCCCCNCC(=O)N(CCC)CC(=O)N(CC(=O)N(CCCCN)CC(=O)N(CC(=O)N(CC(=O)N(CCCN)CC(N)=O)Cc1ccccc1)Cc1ccco1)C(C)c1ccccc1 (stereo not shown) [RMG9-11] (H-[N(tridecyl)Gly][NPrGly][X1][Nlys][NFurfurylGly][Nphe][Gly(N(CH2)3NH2)]-NH2)
MIC K. pneumonia: 50 µg/mL (≈ 47.9 µM)
